Experimental data published in publication PMC5570423, “Structural characterisation of TNRC6A nuclear localisation signal in complex with importin-alpha” (PLoS ONE, 2017).
Blank lines part the entries; values can stand above or below the substance they belong to. Where no end group is shown, it is not given here.

Columns and labels:
[1] = system: mImpα1ΔIBB; experiment: In vitro GST pull-down with mouse Impα1ΔIBB; format: binding; settings: 100 μg GST-cNLS, 250 μg Impα, glutathione resin, 4°C 1 hr, 20 mM Tris pH7.5, […] NaCl, 1 mM DTT; SDS-PAGE
Description: (§1) Glutathione resin (Pierce) was incubated with 100 μg of purified GST-cNLS or GST, and 250 μg of ImpA or 500 μg of ImpB at 4°C for 1 hr. Unbound protein was removed by washing beads 5 times in 500 μL binding buffer, and the bound proteins were eluted in binding buffer supplemented with 10 mM glutathione. The samples were analysed using SDS-PAGE, input lanes correspond to 1% of incubated samples and pull-down lanes correspond to 8% of eluted protein.

[2] = system: mouse Impβ; experiment: In vitro GST pull-down with mouse Impβ; format: binding; settings: GST-NLS with His-tagged mouse Impβ (500 μg), 4°C 1 hr; S1 Fig
Description: as §1
(§2) Pull-downs with GST-NLS or GST-mImpα1 full-length with His-tagged mouse and human Impβ. GST and mImpα1 served as the negative and positive controls, respectively. (EPS) Click here for additional data file.

[3] = system: hImpα1ΔIBB; experiment: In vitro GST pull-down with human Impα1ΔIBB; format: binding; settings: 100 μg GST-cNLS, 250 μg Impα, glutathione resin, 4°C 1 hr; SDS-PAGE
Description: as §1

[4] = system: human Impβ; experiment: In vitro GST pull-down with human Impβ; format: binding; settings: GST-NLS with His-tagged human Impβ (500 μg), 4°C 1 hr; S1 Fig
Description: as §1, §2

[5] = system: nuclear accumulation of a fluorescent reporter; settings: template SSGA####AG, Lys/Arg combinations predicted to bind at P2-P5; cited from earlier work
Description: A detailed mutational analysis of a template monopartite NLS sequence has been reported, where all possible 16 Lys and/or Arg combinations (SSGA####AG, where # represents either Lys or Arg) predicted to bind at the P2-P5 pockets, were tested for their nuclear import activity.

[6] = system: HeLa cells; settings: region comprising residues 1178–1187 of the human protein; cited from earlier work
Description: hTNRC6A cNLS (^1179[…]^1187; numbering according to isoform 1 and corresponds to ^926[…]^934 in isoform 2; Fig 1A) is located between the Ago-binding and UBA regions of the protein [35]. This motif is strictly conserved between mouse and humans (Fig 1B), is present in bats and hedgehogs, but appears to be absent in fish and insects.

binding to mImpα1ΔIBB in GST pull-down [1]: binding was disrupted
Substance: NLS mutant: GST-TNRC6A cNLS with the four arginine residues substituted to Ala, as previously described (SGKKAAAEA; also: fused to GST (GST not in chain), ends not given here)

Substance: SGKKRRRER [GST-TNRC6A cNLS, GST fusion of TNRC6A nuclear localisation signal, residues 1164–1172 of mouse TNRC6A (1179–1187 of human)]
pull-down of mouse Impβ [2]: not sufficient to pull-down | binding to mImpα1ΔIBB in GST pull-down [1]: sufficient to interact | binding to hImpα1ΔIBB in GST pull-down [3]: sufficient to interact | pull-down of human Impβ [4]: not sufficient to pull-down

Substance: SSGAKRRRAG
nuclear accumulation of a fluorescent reporter [5]: Complete nuclear accumulation

Substance: SGKKRRRER [hTNRC6A cNLS, human TNRC6A cNLS, residues 1179–1187 of isoform 1; strictly conserved with mouse; tested earlier on a GFP reporter]
nuclear localisation of a GFP reporter [6]: sufficient to induce the nuclear localisation

binding to mImpα1ΔIBB in GST pull-down [1]: completely abolished binding
Substance: P2 mutant: GST-TNRC6A cNLS with mTNRC6A Lys1167 mutated to Ala (SGKARRRER; also: fused to GST (GST not in chain), ends not given here)
